From patent US20140323575A1, “TYROSINE ISOMERS AS THERAPEUTIC AGENTS” (CONSEJO NACIONAL DE INVESTIGACIONES CIENTIFICAS Y TECNICAS …, priority 2011, published 2014)
≈ marks a conversion by molar mass, not a printed value. Entries after “also recorded” stand apart in the source; their conditions may differ.

Columns and labels:
LB tumor cells = assay: In vitro LB tumor cell proliferation ([3H]-thymidine uptake); assay type: cell-based, mice; conditions: for IC50: Mus musculus, substance alone, read-out: GIU50/mL on in vitro LB tumor cell proliferation; for reversibility of the inhibitory effect: after 18 hours of culture, old medium replaced by fresh medium
Protocol: Each point (percentage of cpm incorporated by LB cells as compared with the control) represents the mean±SE of 3 experiments. Significance versus control, meta-tyrosine and peak 2: P<0.001 at >2.75 μg/mL; peak 2: P<0.05 at 2.75 μg/mL. ortho-tyrosine P<0.001 at 500 to 125 μg/mL; P<0.002 at 30 μg/mL. Peak 3: P<0.002 and P<0.01, at 31 and 15.5 μg/mL, respectively. Rescue of in vitro LB tumor inhibition mediated by meta-tyrosine (150 μg/mL)(B) or ortho-tyrosine (150 μg/mL) (C) by co-culturing with 150 μg/mL of individual protein amino acids. Each value represents the mean±SE of 8 to 18 determinations for (B) and 4 to 9 determinations for (C). a, P<0.01; c, P<0.001 versus meta- or ortho-tyrosine. Data with saline was similar to data obtained with each amino acid alone.
Fractionation of serum from mice bearing a subcutaneous LB tumor (size≧2,000 mm^3) was carried out through several steps of purification (FIG. 1). Serum from normal mice was similarly fractioned as control. At all stages of the purification, the presence of the inhibitory factor was monitored by the [^3H]-thymidine uptake assay as a measure of LB tumor cell proliferation. First, serum was decomplemented and subjected to dialysis. The inhibitory factor was recovered only in the dialyzable fraction (MW<12,500 Da) and was then concentrated by lyophilization and applied successively to Sephadex G-25 and G-15 chromatographic columns, where activity was recovered at fractions corresponding to a molecular weight below 1,000 Da. These fractions were lyophilized and further purified with an HPLC column C18 in a gradient of acetonitrile in TFA (first HPLC). In 12 similar and independent experiments, growth inhibitory activity was systematically recovered in only 1 fraction eluted at near 20% acetonitrile (FIG. 2).
To test directly whether a “cocktail” of amino acids similar to that detected close to the “primary site” was more counteracting of the antitumor effects produced by m- and o-tyrosine than a “secondary site cocktail,” different concentrations of a mixture of m-tyrosine and o-tyrosine (ratio 1:1) were assayed on LB tumor cell proliferation, alone or together with a primary or a secondary site cocktail of amino acids.

C7HI tumor metastases = assay: Spontaneous metastases of C7HI mammary adenocarcinoma in vivo; set-up: species or system mice
Protocol: FIG. 7A illustrates an experiment in which mice bearing a C7HI tumor for 50 days received, between days 50 and 64, a daily intravenous injection of meta-tyrosine (0.3 mL of 1,000 μg/mL) or saline. Mice were sacrificed at day 50 (n=8, before treatment, primary tumor volume 241±16 mm^3) or at day 65 for treated (n=12, primary tumor volume 1,080±101 mm^3) or control (n=12, primary tumor volume 1,091±88 mm^3) mice, and number and size of macroscopic metastases were determined; d=diameter of metastases in mm; a, P<0.05 (Mann-Whitney U test and Student t test) versus control. […] H&E, hematoxylin and eosin.
Mice bearing a C7HI tumor for 50 days received, between days 50 and 71, a daily intravenous injection of 1.0 mg of meta-tyrosine diluted in 0.1 ml of saline, or saline only. Mice were sacrificed ad day 50 (n=12, before treatment) or at day 71 for treated (n=12) or control (n=12) mice, and number and size of macroscopic metastases were determined; d=diameter of metastases in mm.
C7HI is a breast carcinoma that generates a high number of pulmonary and hepatic metastases, the number of pulmonary metastases being higher than the number of hepatic metastases. In this experiment, 36 mice received one implant each of 5×10^5 tumor C7HI cells. 50 days after implanting the tumor cells, 12 mice were sacrificed for evaluating the number and size of pulmonary and hepatic metastases. The remaining 24 mice were divided in two groups of 12 mice each. The experimental group received 1.0 mg of meta-tyrosine diluted in 0.1 ml of saline per mouse per day. […] The second group (control) received in 0.1 ml of saline per mouse per day. After 21 days of treatment, all mice were sacrificed and the number and size of the metastases were evaluated. […] This inhibitory activity was reflected not only in that the number of metastases of both groups was the same, and in some cases lower, as compared with the number of metastases at the beginning of the treatment (as estimated by the data produced by the 12 mice sacrificed before starting the treatments), but also in that their size was either the same or smaller. This is remarkable because of the 12 experimental mice, there was one showing a low response to the treatment. Should the values measured in this particular mouse be excluded from the pool, the number of metastases at day 71 in the experimental group would have been less than half the number of metastases observed before the start of the treatment at day 50.

MC-C tumor = assay: In vivo growth of s.c. MC-C fibrosarcoma implants; set-up: species or system mice; conditions: for effect on growth of MC-C tumor implants: mouse, in vivo
Protocol: Twelve mice received a s.c. implant of 5×10^6 MC-C tumor cells in the right flank and 25 days later they received a secondary implant of 2×10^6 MC-C tumor cells in the left flank. […] The remaining 6 mice received 0.2 ml of phenylalanine (500 μg/ml) at the site of the secondary implant, daily, for 19 days, starting 1 hour later than the secondary implant. These secondary implants grew as in 6 controls only receiving the implant in the left flank (tumor volumes of secondary tumor+phenylalanine and of controls, 20 days after the implant in the left flank were =680±152 mm^3 and 524±88 mm^3, respectively). […] Significance: Secondary tumor vs. control: p<0.01; vs. secondary tumor+phenylalanine: p<0.02. Control+m-tyrosine vs. control and vs. secondary tumor+phenylalanine: p<0.02.

C7HI tumor cells = assay: In vitro proliferation of C7HI tumor cells; assay type: cell-based; conditions: dose-dependent, not shown
[1] = 1.0 mg per mouse per day, intravenous, 21 days

Structure (SMILES) | IC50 (LB tumor cells) | reversibility of the inhibitory effect (LB tumor cells) | inhibitory effect of m-tyrosine relative to o-tyrosine (LB tumor cells; in vitro LB tumor cell proliferation) | difference between size of primary tumors at day 71, experimental versus controls (C7HI tumor metastases; 1.0 mg daily intravenous, days 50 to 71) | growth of microscopic metastases (C7HI tumor metastases; [1]) | hepatic metastases at day 71 (C7HI tumor metastases; [1]) | growth of established macroscopic pulmonary metastases (C7HI tumor metastases; 1.0 mg per mouse per day, intravenous, 21 days (days 50-71)) | primary tumor volume at day 65 (C7HI tumor metastases; daily intravenous 0.3 mL of 1,000 μg/mL, days 50 to 64) | established spontaneous C7HI lung metastases (C7HI tumor metastases; daily intravenous 0.3 mL of 1,000 μg/mL, days 50 to 64 (FIG. 7), listed as m-tyrosine) | tumor volume 20 days after the implant in the left flank (MC-C tumor; MC-C implant in left flank only, 0.2 ml of 500 μg/ml daily for 19 days at the site of the implant) | effect on growth of MC-C tumor implants (MC-C tumor) | in vitro proliferation of C7HI tumor cells (C7HI tumor cells) | effect on C7HI metastases, experiment repeated with orto-tyrosine (C7HI tumor metastases; mouse, in vivo)
NC(Cc1cccc(O)c1)C(=O)O (centres unmarked) [meta-tyrosine, 3-hydroxyphenylalanine] | 4.5 ± 0.9 µg/mL (≈ 24.8 µM) | reversible | about 10 times | not significant | prevented growth | no metastases were detected | prevented the growth | 1,080±101 mm^3 | less metastatic foci; also recorded: sharp inhibitory effects | 212±57 mm^3 | sharp inhibitory effects | inhibited | –
NC(Cc1ccccc1O)C(=O)O (centres unmarked) [ortho-tyrosine, 2-hydroxyphenylalanine] | 46.7 ± 5.2 µg/mL (≈ 258 µM) | reversible | – | – | – | – | – | – | – | – | inhibitory | inhibited | inhibitory effect
